pIC50: −log10 of the molar value. Square brackets hold non-standard residues; d marks the D form. Peptide text beside a SMILES is read from it. * marks the point of attachment. ξ: configuration not given here. d(αMeF) = C[C@@](N)(Cc1ccccc1)C(=O)O; d(hPhe) = N[C@H](CCc1ccccc1)C(=O)O; 2Thi = N[C@@H](Cc1cccs1)C(=O)O; d2Thi = N[C@H](Cc1cccs1)C(=O)O; ξF = NC(Cc1ccccc1)C(=O)O; Bn = c1ccc(C*)cc1; Ms = CS(=O)(=O)*

In general, pIC50 refers to the negative decadic logarithm of the IC50, by convention in mol/L.

What all share (type): biochemical
Test [1] concerns the target T1, Recombinant human calpain I (Homo sapiens, UniProt P07384).
T1 construct: made in house
T1 sequence (P07384 1-714): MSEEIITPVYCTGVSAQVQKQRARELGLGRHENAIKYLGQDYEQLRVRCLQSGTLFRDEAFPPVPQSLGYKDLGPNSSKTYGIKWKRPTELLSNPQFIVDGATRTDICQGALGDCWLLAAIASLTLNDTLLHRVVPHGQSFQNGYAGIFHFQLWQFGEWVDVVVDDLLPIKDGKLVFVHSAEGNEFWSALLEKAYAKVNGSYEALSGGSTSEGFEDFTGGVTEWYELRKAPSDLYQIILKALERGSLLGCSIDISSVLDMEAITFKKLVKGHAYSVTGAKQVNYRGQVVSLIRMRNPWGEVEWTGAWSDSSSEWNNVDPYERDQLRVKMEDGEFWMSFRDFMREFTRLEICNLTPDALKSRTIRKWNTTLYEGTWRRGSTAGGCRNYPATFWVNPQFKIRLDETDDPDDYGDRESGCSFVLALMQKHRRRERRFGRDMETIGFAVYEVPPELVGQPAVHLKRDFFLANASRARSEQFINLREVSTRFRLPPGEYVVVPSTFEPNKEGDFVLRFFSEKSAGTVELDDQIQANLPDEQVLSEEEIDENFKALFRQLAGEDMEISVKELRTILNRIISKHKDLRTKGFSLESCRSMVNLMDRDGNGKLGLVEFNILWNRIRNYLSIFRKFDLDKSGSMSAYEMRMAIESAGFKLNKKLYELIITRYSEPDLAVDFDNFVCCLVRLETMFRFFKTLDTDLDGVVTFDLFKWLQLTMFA
The test is described as follows: Inhibition of calpain I activity. The following applies: Table III.

A further test concerns the target T2, cathepsin B (Homo sapiens, UniProt P07858).
T2 construct: purchased Calbiochem 219364
Put plainly: Inhibition of cathepsin B. The following applies: Table III; for inhibition at 1 µM: read-out: Cat B % I @ 1 uM. How it is done: (§1) Additionally,the order of reagents added to the plate was altered because both enzymes are constitutively active. Following inhibitor addition to the plates, appropriate 2× concentrated stock dilutions of the enzyme preparations were made in assay buffer and 100 μl added to each well. The assay was initiated by addition of 100 μl of 2× concentrated stock dilution of substrate in assay buffer.

For a further test, the target named is T3, cathepsin L (Homo sapiens, UniProt P07711).
T3 construct: purchased Calbiochem 219402
T3 sequence (P07711 114-288 limits assumed): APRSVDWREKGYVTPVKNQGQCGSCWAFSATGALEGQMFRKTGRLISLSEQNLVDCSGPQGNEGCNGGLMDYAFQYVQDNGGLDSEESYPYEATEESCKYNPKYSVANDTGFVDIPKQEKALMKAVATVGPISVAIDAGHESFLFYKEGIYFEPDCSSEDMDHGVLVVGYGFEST
T3 sequence (P07711 292-333 limits assumed): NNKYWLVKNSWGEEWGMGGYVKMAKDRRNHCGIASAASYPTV
Put plainly: Inhibition of cathepsin L. The following applies: Table III; 1 uM; read-out: Cat L % I @ 1 uM. How it is done:
as §1

For a further test, the target named is T4, thrombin (Homo sapiens, UniProt P00734).
T4 construct: purchased Sigma Chem. Co. T-7009
The test is described as follows: Inhibition of thrombin. The note with it: Table III, 10 uM; for inhibition at 10 µM: read-out: Thrombin % I @ 10 uM.

The target of a further test is T5, α-chymotrypsin (Bos taurus, UniProt P00766).
T5 construct: purchased Sigma Chem. Co. C-3142
The test is described as follows: Inhibition of α-chymotrypsin. The following applies: Table III, 10 uM; for inhibition at 10 µM: read-out: Chymotrypsin % I @ 10 uM. In short, it runs like this:
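Enzyme added to inhibitor first, then reaction started with substrate; no calcium activation needed as enzyme is constitutively active. Fluorogenic substrate hydrolysis read every 5 min up to 30 min ([…]).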

Regarding `CS(=O)(=O)N[C@H](COCc1ccccc1)C(=O)N[C@@H](Cc1ccccc1)C(O)OCc1ccccc1` (stereo partly shown) [Compound 135], the pIC50 in test [1] was 7.96. In test [1] (0.1 uM), the inhibition at 0.1 µM was determined as 91%. In addition, the inhibition at 1 µM was found to be 98% at cathepsin B (1 uM) and 100% at cathepsin L. Further, the inhibition at 10 µM turned out to be 0% on thrombin and 4% on α-chymotrypsin.

As for `CCOC(OCC)[C@H](Cc1ccccc1)NC(=O)[C@@H](COCc1ccccc1)NS(C)(=O)=O` [Compound 134], the inhibition at 0.1 µM in test [1] (0.1 uM) amounted to 0%. In addition, the inhibition at 1 µM was 19% at cathepsin B (1 uM) and 98% on cathepsin L. Further, the figures for the inhibition at 10 µM at thrombin and at α-chymotrypsin were 0% and 10%, respectively.

Turning to `CS(=O)(=O)N1Cc2ccccc2CC1C(=O)N[C@H](C=O)Cc1ccccc1` (single isomer, unassigned) [Compound 95], the pIC50 in test [1] is 6.56. Moreover, the “Calpain % I @ 0.1 uM” value in test [1] (0.1 uM) amounted to 17%. In addition, the “Cat B % I @ 1 uM” value on cathepsin B (1 uM) is 38%. The inhibition at 1 µM at cathepsin L was determined as 100%. The “Thrombin % I @ 10 uM” value on thrombin came to 1%. The “Chymotrypsin % I @ 10 uM” value at α-chymotrypsin worked out at 0%.

Consider `CON=C[C@H](Cc1ccccc1)NC(=O)[C@@H](COCc1ccccc1)NS(C)(=O)=O` [Compound 119], for which, in test [1] (0.1 uM), the inhibition at 0.1 µM was 19%. For the same molecule, the inhibition at 1 µM on cathepsin B (1 uM) stood at 68%; at cathepsin L, 98%. In addition, the results for the inhibition at 10 µM at thrombin and on α-chymotrypsin were 0% and 3%, respectively.

As for `CS(=O)(=O)N[C@@H](Cc1cccs1)C(=O)N[C@H](C=O)Cc1ccccc1` [Compound 99] (Ms-[2Thi]-Phe-aldehyde), the pIC50 in test [1] was 7.21. Moreover, in test [1] (0.1 uM), the inhibition at 0.1 µM worked out at 66%. The inhibition at 1 µM on cathepsin B (1 uM) is 96%; at cathepsin L, 100%. For the same molecule, the inhibition at 10 µM turned out to be 0% at thrombin and 13% at α-chymotrypsin.

In the case of `CC(=O)Nc1ccc(S(=O)(=O)N2CCC[C@@H]2C(=O)N[C@H](C=O)Cc2ccccc2)cc1` [Compound 103], the pIC50 in test [1] was 7.15. In addition, in test [1] (0.1 uM), the inhibition at 0.1 µM was found to be 37%. Further, the results for the inhibition at 1 µM on cathepsin B (1 uM) and at cathepsin L were 40% and 56%, respectively. Moreover, the inhibition at 10 µM at thrombin was determined as 3%; on α-chymotrypsin, 26%.

`C[C@](Cc1ccccc1)(NS(C)(=O)=O)C(=O)NC(C=O)Cc1ccccc1` (stereo partly shown) [Compound 105] (Ms-[d(αMeF)]-[ξF]-aldehyde): in test [1] (0.1 uM), the inhibition at 0.1 µM stood at 9%. In addition, the inhibition at 1 µM on cathepsin B (1 uM) was 45%; at cathepsin L, 71%. Also, the results for the inhibition at 10 µM at thrombin and on α-chymotrypsin were 0% and 10%, respectively.

On to `CS(=O)(=O)N[C@H](Cc1cccs1)C(=O)N[C@H](C=O)Cc1ccccc1` [Compound 100] (Ms-[d2Thi]-Phe-aldehyde), for which the negative logarithm of the IC50 (pIC50) in test [1] is 7.82; at cathepsin B (read-out: Cat B IC50), 7.51. Moreover, in test [1] (0.1 uM), the inhibition at 0.1 µM was found to be 96%. Further, the inhibition at 1 µM at cathepsin B (1 uM) came out at 97%; on cathepsin L, 100%. The inhibition at 10 µM on thrombin and on α-chymotrypsin was 0% throughout.

Consider `CS(=O)(=O)N[C@H](COCc1ccccc1)C(=O)N[C@H](C=O)Cc1ccc(OCc2ccccc2)cc1` [Compound 90] (Ms-[dS](Bn)-Tyr(Bn)-aldehyde), for which the pIC50 in test [1] is 8.30. The inhibition at 0.1 µM in test [1] (0.1 uM) stood at 99%. The inhibition at 1 µM at cathepsin B (1 uM) came to 100%; at cathepsin L, 99%. Besides, the inhibition at 10 µM at thrombin and on α-chymotrypsin was 0% throughout.

On to `CS(=O)(=O)N[C@H](CCc1ccccc1)C(=O)N[C@H](C=O)Cc1ccccc1` [Compound 62] (Ms-[d(hPhe)]-Phe-aldehyde), for which the pIC50 in test [1] was 7.41. The inhibition at 0.1 µM in test [1] (0.1 uM) amounted to 71%. The figures for the inhibition at 1 µM at cathepsin B (1 uM) and on cathepsin L were 85% and 89%, respectively. Further, the inhibition at 10 µM on thrombin was 0%; on α-chymotrypsin, 4%.
